The values that follow come from paper PMC8994274, “A proteolysis-targeting chimera molecule selectively degrades ENL and inhibits malignant gene expression and tumor growth” (Journal of Hematology & Oncology, 2022).

Usually EC50 stands for the concentration needed to bring the measured effect to its halfway point.

For assay [1], the system named is AF9, AFF4, cyclin-T1 and H3K79me2. Put plainly: ChIP-qPCR, AF9, AFF4, cyclin-T1 and H3K79me2 at gene promoters of Myc and HoxA9. Type of assay: cell-based. The following applies: MV4;11 cells, 500 nM, 4 days. On the procedure:
(§1) Chromatin immunoprecipitation (ChIP) followed by qPCR was used to further probe the activity of compound 1 in the gene promoters of Myc and HoxA9, two characteristic MLL1 target genes.
(§2) Upon treatment with a compound for 4 days, 10^7 MV4;11 cells were cross-linked with 1% formaldehyde at room temperature for 10 min, followed by the addition of 125 mM glycine. Cells were lysed with nuclear lysis buffer and sonicated to ~ 100–1000 bp fragments, which was incubated at 4 °C overnight with an antibody and IgG (C15410206, Diagenode). Protein A/G Magnetic Beads (10 µL, Novus Biologicals) were added and incubated for 2 h. The beads were washed 3 × with RIPA buffer and 2 × with TE buffer. DNA on the beads was eluted for 2 h at 68 °C in 100 μL of an elution buffer (20 mM Tris pH 7.5, 5 mM EDTA, 50 mM NaCl, 1% SDS, 50 μg/mL proteinase K) (2 ×), and purified using a ChIP DNA Clean & Concentrator kit (Novus Biologicals). qPCR was done using the method described above.
Background: Real-time PCR tracks product formation cycle by cycle.

In another assay the test system is Molm-13 cells. Briefly: Annexin V apoptosis assay in Molm-13 cells. The conditions noted are these: 7 days. Type of assay: cell-based. Here is the method:
Treatment of Molm-13 cells with compound 1 for 7 days at 1 and 3 µM caused significant apoptosis of 22.7% and 67.6%, respectively (Fig. 6c and Additional file 1: Fig. S6).
For Annexin V apoptosis assay, 10^5 cells/mL were incubated with increasing concentrations of a compound for 7 days. Apoptosis was determined using the FITC Annexin V Apoptosis Detection Kit I (BD Bioscience) using the manufacturer’s protocol. For other FACS assays, cells were labeled with fluorochrome-conjugated monoclonal antibodies against human CD14 and CD11b (BD Biosciences) according to the manufacturer’s recommendation. Cells were analyzed using a FACS Calibur (BD Biosciences/Applied Biosystems), and data were processed using the program Flowjo (version7.6.5).

Another assay concerns HoxA11 and HoxA13. Put plainly: qPCR expression of HoxA11 and HoxA13 in mENL-transfected HEK293T cells. Type of assay: cell-based. The conditions noted are these: 0.04 μg of the plasmid, 24 h incubation. On the procedure:
Next, we investigated how mENL degradation affect expression of HoxA11 and HoxA13 in this cell model.
5 × 10^5 HEK293T cells were transfected with mENL containing pcDNA3.1(+)-N-DYK plasmid using jetPRIME (Polyplus Transfection) following the manufacturer's protocol. Upon transfection for 4 h, the media were carefully removed and the cells incubated with fresh media containing the specified concentrations of compound 1 for 24 h before further analysis (using Western blot or qPCR as described above).

Another assay relates to Hela cells. Briefly: Antiproliferation assay, Hela. The following applies: Homo sapiens, 168 h, read-out: Antiproliferative activity, EC50, Hela.
The subject of the next assay is Kasumi-1 cells. Briefly: Antiproliferation assay (XTT), Kasumi-1. The conditions noted are these: Homo sapiens, Kasumi 1, 168 h, read-out: Antiproliferative activity, EC50, Kasumi-1. On the technique in general: Formazan colour is commonly taken as a measure of viable cells.
Assay [2] deals with T1, ENL (Homo sapiens, UniProt Q03111).
T1 sequence (Q03111 1-559): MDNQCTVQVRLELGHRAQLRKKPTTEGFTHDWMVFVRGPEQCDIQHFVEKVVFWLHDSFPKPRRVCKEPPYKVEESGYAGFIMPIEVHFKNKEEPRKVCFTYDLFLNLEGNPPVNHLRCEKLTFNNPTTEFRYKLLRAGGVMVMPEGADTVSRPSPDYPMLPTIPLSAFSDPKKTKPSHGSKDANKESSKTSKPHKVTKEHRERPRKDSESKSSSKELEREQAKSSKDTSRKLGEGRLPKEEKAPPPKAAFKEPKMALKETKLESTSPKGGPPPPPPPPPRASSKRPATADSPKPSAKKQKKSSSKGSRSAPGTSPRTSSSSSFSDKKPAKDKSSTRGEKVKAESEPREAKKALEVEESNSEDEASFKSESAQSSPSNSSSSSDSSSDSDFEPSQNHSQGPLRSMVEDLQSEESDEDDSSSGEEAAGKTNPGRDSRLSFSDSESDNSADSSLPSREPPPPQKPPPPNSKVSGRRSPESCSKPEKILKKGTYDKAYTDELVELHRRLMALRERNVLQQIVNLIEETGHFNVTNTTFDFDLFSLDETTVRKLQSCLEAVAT
Briefly: ChIP-qPCR, ENL at gene promoters of Myc and HoxA9. Also on record: endogenous in cells; host or cells: MV4;11. The conditions noted are these: MV4;11 cells, 500 nM, 4 days. Type of assay: cell-based. Here is the method: as §1, §2

Assay [3] addresses T1, ENL. Briefly: ENL degradation in MV4;11 cells (Western blot). Type of assay: cell-based. The following applies: 500 nM. Also on record: endogenous in cells; host or cells: MV4;11.

Description for Kasumi-1 cells: Proliferation inhibition assays for suspension blood cancer cells were performed using an XTT assay kit (Biotium), following our previous methods [22]. EC50 values were determined using Prism 5 and from at least three independent experiments.

As for `C[C@H]1CCCN1Cc1nc2cc(NC(=O)c3ccc4c(cnn4CCCCCCCCNc4cccc5c4C(=O)N(C4CCC(=O)NC4=O)C5=O)c3)ccc2[nH]1` (stereo partly shown) [Compound 1], the “AF9, AFF4, cyclin-T1 and H3K79me2 at gene promoters of Myc and HoxA9” value in assay [1] is listed as “did not significantly lower down”. The Apoptosis in the assay on Molm-13 cells (0.5 μM) is not above 5%; with Molm-13 cells (1 µM), 22.7%; in the assay with Molm-13 cells (3 µM) it was 67.6%. In the assay with HoxA11 and HoxA13, the “Overexpression of HoxA11 and HoxA13” value is recorded as “significantly inhibited overexpression”. The EC50 in the assay with Hela cells is more than 50000 nM; in the assay on Kasumi-1 cells, 1100 ± 30 nM. Moreover, the “ENL levels at gene promoters of Myc and HoxA9” value on ENL [2] was “significantly reduced”. Moreover, the “Time at which significant ENL degradation can be detected” value at ENL [3] came to 2 h. The “Time to ENL depletion” value on ENL [3] is given as not above 24 h.
